# Measured values taken from patent US20240002424A1, “HEXOSAMINE COMPOUNDS AND METHODS THEREOF” (National Institute of Immunology, priority 2021, published 2024).
# Assays:
# HEK293 cells = settings: cited from earlier work
# HL-60 cells = test: Static cell adhesion to mouse E-selectin-Fc (mCD62E) coated surfaces; assay type: cell-based, human; settings: HL-60 pre-incubated 50 μM, 48 h; adhesion 60 min
# Description: Effect of ManNAc analogues on cell adhesion to E-selectin and L-selectin coated surfaces: This assay was performed in 96-well polystyrene plates under sterile conditions. The plates were prepared freshly on the day of adhesion experiments. Wells were first coated with protein-G (200 ng in 50 μL PBS per well) for 1.0 h at room temperature (RT) followed by PBS washes (2×0.1 mL). Then either recombinant mouse E-selectin-Fc chimera or L-selectin-Fc chimera (20 ng in 50 μL PBS per well) was added to the wells and plate was left undisturbed for 1.0 h at RT. Wells were aspirated and washed with PBS (2×0.1 mL) followed by blocking with 1.0% (w/v) BSA in 50 μL PBS per well for 1.0 h at RT. After blocking, the wells were washed with PBS (3×0.1 mL).
# HL-60 cells (3.0×10^5 cells per mL; 2.0 mL in six well plates) were incubated with 50 μM ManNAc analogues, harvested at 48 h, washed once with serum free RPMI medium (0.5 mL), and resuspended in serum free RPMI 1640 media containing 1.5 mM CaCl2) (4.0×10^5 cells/mL in 1.0 mL). The single cell suspension was added to each well (2.0×10^4 cells in 50 μL media per well) and allowed to adhere for 1.0 h at 37° C. in a CO2 incubator. […] Images were captured at 10× magnification using Olympus IX53 fluorescence microscope. […] The images were analyzed manually and the total number of adherent cells per well for each condition were plotted.
Structure (SMILES),increase of total sialic acid levels (HEK293 cells),share of sialic acid being modified N-cyclopropanoyl-D-neuraminic acid (HEK293 cells),increase in the numbers of adhered cells on mCD62E coated surface (HL-60 cells)
"CC(=O)OC[C@H]1O[C@H](OC(C)=O)[C@@H](NC(=O)C2CC2)[C@@H](OC(C)=O)[C@@H]1OC(C)=O [Compound 1a, 1,3,4,6-tetra-O-acetyl-2-cyclopropanoylamino-2-deoxy-α-D-mannopyranose]",two folds,more than 50%,
"CC(=O)OC[C@H]1OC(OC(C)=O)[C@@H](NC(=O)C2CCC2)[C@@H](OC(C)=O)[C@@H]1OC(C)=O (stereo partly drawn) [Compound 1b, (3S,4R,5S,6R)-6-(acetoxymethyl)-3-(cyclobutanecarboxamido)tetrahydro-2H-pyran-2,4,5-triyl triacetate]",,,about 40%
